From US9737552B2, “Treatment of cognitive impairment in a subject with a neurological autoimmune disease” (The Johns Hopkins University, priority 2010, dated 2017)
Read-outs that look alike come from different tables or passages of the source.

Assays:
EAE mice [1] = test: EAE disease score in MOG35-55 immunized mice; type: in vivo; conditions: 100 mg/kg daily i.p. from immunization until sacrifice; vs Control mice
Description: The effects of GCPII inhibition were tested on an animal model of multiple sclerosis (experimental autoimmune encephalomyelitis, or “EAE”). To induce EAE, mice were given two 50 μL subcutaneous flank injections of myelin oligodendrocyte glycoprotein 35-55 peptide fragment (MOG35-55) dissolved in 50 μL PBS emulsified in 50 μL IFA supplemented with 400 μg M. tuberculosis H37Ra, at a final concentration of 100 μg MOG35-55 per 100 μL total volume. At the time of MOG immunization and 2 days later, all EAE mice were administered intraperitoneal injections of 300 ng pertussis toxin in 100 μL PBS. Immunized mice were treated with either 2-PMPA or a vehicle control for the duration of the experiment. Vehicle (50 mM HEPES buffer) or 2-PMPA (100 mg/kg in vehicle at a pH of 7.4) was delivered daily via 0.1 mL intraperitoneal injections from the time of EAE immunization until sacrifice.

EAE mice [2] = test: Barnes maze testing in EAE mice; type: in vivo
Description: To measure cognitive function in EAE mice, Barnes maze testing was conducted using the immunized mice, beginning approximately 4 weeks post-immunization. […] Animals were trained on the Barnes maze (AccuScan Instruments, Columbus, Ohio) for 4 trials per day (inter-trial interval >30 minutes) for 4 consecutive days. Briefly, mice were placed in the center of the maze platform under an opaque enclosed 3″×5″× container. After 15 seconds the container was removed and the mice were free to move in the maze. A target box was placed under 1 of the 40 holes around the maze perimeter, and the location of the target box, along with the location of 4 equally spaced polarizing visual cues and one lamp, remained the same throughout all trials. Mice were given up to 3 minutes to locate and enter the target box, and were gently guided into the target box if it was not found within the 3 minute limit. Following entry into the target box, the box was covered and the mouse remained in the box for 30 seconds before transfer to a holding cage. Paths were recorded and latency to the target hole, path efficiency, speed, and directional times were calculated using ANY-maze software (Stoelting, Wood Dale, Ill.).

EAE mice [3] = test: Fear conditioning test in EAE mice; type: in vivo
Description: To measure fear memory and amygdala function in EAE mice, fear conditioning tests were performed. Following the Barnes maze testing, animals were given 1-2 weeks rest then subjected to fear conditioning. Briefly, animals were placed in a fear conditioning chamber for 240 seconds on 3 consecutive days. On day 1, a 2000 Hz tone was played for 28 seconds (seconds 180-208), immediately followed by a 2 second scrambled footshock (seconds 208-210). On day 2, animals were placed back in the same testing environment, but neither sound nor shock was administered. On days 3 and 5, mice were placed in a novel wooden box inside the fear conditioning chamber, and a 2000 Hz tone was played for 120 seconds (seconds 121-240). The duration of freezing behavior on each day was measured using FreezeScan software (Clever Sys Inc., Reston, Va.).

EAE mice [4] = tested on: EAE mice
Description: A separate cohort of 2-PMPA and Control EAE mice (n=6-7) were tested on the elevated plus maze 27 days after disease induction. Mice were placed in the center of the maze and given 5 minutes to freely explore the maze. Time spent in open and closed arms of the maze were tracked using ANY-maze software (Stoelting, Wood Dale, Ill.).

GCPII = test: Mass spectrometry of NAA and NAAG in post-mortem brains of EAE mice; type: in vivo; conditions: Mean±SEM, 50 days after EAE immunization
Description: (§1) To determine whether GCPII inhibition altered the levels of the enzyme's substrate (NAAG) or product (NAA), mass spectrometry was conducted in post-mortem brains of EAE mice either treated with 2-PMPA or a vehicle control. Animals were sacrificed by cervical dislocation 50 days after EAE immunization. Hippocampus, frontal lobe, and cerebellum structures were dissected, and NAA, NAAG, and 2-PMPA concentrations were measured via mass spectrometry. Briefly, NAAG and NAA in brain tissue homogenates were separated on a Waters Atlantis ODS column. NAA, NAAG, and the internal standard were monitored by tandem mass spectrometry with electrospray negative ionization. Linear calibration curves were generated over the range of 5-5000 ng/mL and converted to μg/g. For determination of 2-PMPA, separations were achieved on a Waters XTerra MS C18 column. 2-PMPA and the internal standard were monitored by tandem mass spectrometry with electrospray negative ionization. Linear calibration curves were generated over the 1-100 ng/mL range and converted to μg/g.

[5] = Mass spectrometry of 2-PMPA concentration in post-mortem brains of EAE mice; type: in vivo; conditions: mouse, ip, Mean±SEM, 100 mg/kg daily i.p., sacrifice 50 days after immunization
Description: as §1

## O=C(O)CCC(CP(=O)(O)O)C(=O)O (centres unmarked) [2-PMPA, 2-(phosphonomethyl)pentanedioic acid]
EAE mice [1]
  Disease severity and progression, as measured by EAE disease scores: did not differ
EAE mice [2]; 100 mg/kg daily i.p., vs vehicle
  Primary latency, total latency and path efficiency on the first two days of Barnes maze testing: equal between groups
EAE mice [2]; Mean±SEM, 100 mg/kg daily i.p., p=0.0029 vs Control
  Path efficiency, first trial of day 4 compared to baseline (day 1, trial 1): −0.7276±0.0295
EAE mice [2]; Mean±SEM, 100 mg/kg daily i.p., p=0.0072 vs Control
  Primary latency, first trial of day 4 compared to baseline (day 1, trial 1): 167.4±1.187
EAE mice [2]; Mean±SEM, 100 mg/kg daily i.p., p=0.0171 vs Control
  Total latency, first trial of day 4 compared to baseline (day 1, trial 1): 167.4±1.187
EAE mice [2]; Mean±SEM, e.g. trial 4 of day 3 vs. trial 1 of day 4, p=0.020 vs controls
  Path efficiency, back-to-back trials on consecutive days (long-term memory): −0.1377±0.0937
EAE mice [2]; Mean±SEM, e.g. trial 4 of day 3 vs. trial 1 of day 4, p=0.021 vs controls
  Total latency, back-to-back trials on consecutive days (long-term memory): 13.14±7.69
EAE mice [2]; vs control EAE group
  Maximum speed in the maze: No differences
EAE mice [3]; Day 1
  Baseline freezing on Day 1: < 20%
EAE mice [3]; Day 3, vs control
  Cued freezing behavior on Day 3: No differences
EAE mice [3]; Day 5, specifically in the last 60 seconds, vs control
  Cued freezing in response to the 120 second tone on Day 5: increased cued freezing
EAE mice [3]; Mean±SEM, Day 2, % time freezing (FIG. 5 legend)
  Contextual freezing on Day 2: 50.49±4.18
EAE mice [4]
  Time spent in the closed arms: 224.2±10.07
  Time spent in the open arms: 34.10±9.22
GCPII; p=0.0002 vs control
  NAAG concentration in the frontal cortex: 32.91 ± 0.93 µg/g
GCPII; p=0.0655 vs control
  NAAG concentration in the cerebellum: 102.4 ± 2.3 µg/g
GCPII; p=0.2895 vs control
  NAA in the hippocampus: 985.0 ± 48.12 µg/g
GCPII; p=0.3035 vs control
  NAA in the frontal cortex: 1134 ± 45.65 µg/g
GCPII; p=0.3053 vs control
  NAA in the cerebellum: 899.3 ± 19.66 µg/g
GCPII; p=0.8575 vs control
  NAAG concentration in the hippocampus: 54.98 ± 2.037 µg/g
[5]; cerebellum, read-out: 2-PMPA in the cerebellum
  concentration at 50 days after EAE immunization: 832 ± 56 ng/g
[5]; frontal cortex, read-out: 2-PMPA in the frontal cortex
  concentration at 50 days after EAE immunization: 1190 ± 222 ng/g
[5]; hippocampus, read-out: 2-PMPA in the hippocampus
  concentration at 50 days after EAE immunization: 835 ± 264 ng/g
